This is an account of results in US20240076297A1, “ADENOSINE A2A AND A2B RECEPTOR DUAL ANTAGONISTS FOR IMMUNO-ONCOLOGY” (Merck Sharp & Dohme LLC, priority 2020, published 2024).

In experiment [1] the target is human A2B adenosine receptor (Homo sapiens (Human), UniProt P29275). Description: A2B binding affinity, radioligand filtration binding assay. The note with it: value given with marker (A); HEK293 membranes expressing human A2B, tritiated proprietary antagonist. An excerpt:
(§1) Method (A) describes the procedure used to measure A2A binding affinity using radioligand binding. Method (B) describes the procedure used to measure A2A binding affinity using SPA technology. The method used to measure A2B binding affinity is also described below. The method used to determine the A2A IC50 value reported for each compound in the table is indicated next to the reported value. The A2B IC50 value measured using the A2B binding affinity assay is shown in the table next to the compound under the corresponding A2A value.
Measurement of A2B Binding Affinity
The reported affinity of the compounds of the invention for the human A2B adenosine receptor was determined experimentally using a radioligand filtration binding assay. This assay measures the amount of binding of a tritiated proprietary A2B receptor antagonist, in the presence and absence of a compound of the invention, to membranes made from HEK293 cells recombinantly expressing the human A2B adenosine receptor (Perkin Elmer, Cat. No. ES-013-C).
148 μL (135 μg/mL) membranes and 2 μL test compounds were transferred to individual wells of a 96-well polypropylene assay plate and incubated for 15 to 30 min at room temperature with agitation. Tritiated radioligand was diluted to a concentration of 14 nM in assay buffer (phosphate buffered saline without Magnesium and Calcium, pH 7.4; GE Healthcare Life Sciences, Cat. No. SH30256.01) and then 50 μL of the solution were transferred to each well of the assay plate. To define total and non-specific binding, wells containing 1% DMSO and 20 μM N-ethylcarboxamidoadenosine (Tocris Bioscience, Cat. No. 1691) respectively, were also included. The wells of the assay plate were incubated at room temperature for 60 min with agitation, then filtered using a FilterMate Harvester® (Perkin Elmer) or similar equipment through a UniFilter-96@ PEI coated plate (Perkin Elmer Cat. No. 6005274 or 6005277). Filtering was achieved by aspirating the contents of the assay plate for 5 sec, then washing and aspirating the contents three times with ice-cooled wash buffer (assay buffer supplemented with 0.0025% Brij58) and allowing the vacuum manifold to dry the plate for 30 sec. The filter plate was incubated for at least 1 h at 55° C. and allowed to dry. The bottom of the filter plate was then sealed with backing tape. 40 μL Ultima Gold™ (Perkin Elmer, Cat. No. 6013329) was added to each well of the filter plate and the top of the plate was sealed with TopSeal-A PLUS® clear plate seal (Perkin Elmer, Cat. No. 6050185). The plates were then incubated for at least 20 min, and then the amount of radioactivity remaining in each well was determined using a TopCount® (Perkin Elmer) scintillation counter. After normalization to total and non-specific binding, the percent effect at each compound concentration was calculated. The plot of percent effect versus the log of compound concentration was analyzed electronically using a 4-parameter logistic fit based on the Levenberg-Marquardt algorithm to generate IC50 values.

In experiment [2] the target is human A2A adenosine receptor (Homo sapiens (Human), UniProt P29274). Briefly: A2A binding affinity using radioligand binding, Method (A). The note with it: Method (A): filtration radioligand binding, [3H] SCH58261, membranes expressing human A2A.
Description: as §1
The A2A receptor affinity binding assay measured the amount of binding of a tritiated ligand with high affinity for the A2A adenosine receptor to membranes made from HEK293 or CHO cells recombinantly expressing the human A2A adenosine receptor, in the presence of varying concentrations of a compound of the invention. The data were generated using either filtration binding or a homogenous scintillation proximity assay (SPA).
Method (A): Measurement of A2A Binding Affinity Using Radioligand Binding
148 μL (5 μg/mL) membranes (Perkin Elmer, Cat. No. RBHA2aM400UA) and 2 μL compounds of the invention to be tested (test compound) were transferred to individual wells of a 96-well polypropylene assay plate and incubated for 15 to 30 min at room temperature. [^3H] SCH58261 ((7-(2-phenylethyl)-5-amino-2-(2-furyl)-pyrazolo-[4,3-e]-1,2,4-triazolo[1,5-c]pyrimidine)) was diluted in assay buffer (50 mM Tris pH 7.4, 10 mM MgCl2, 0.005% Tween20) to a concentration of 4 nM and 50 μL transferred to each well of the assay plate. To define total and non-specific binding, wells containing 1% DMSO and 1 μM ZM241385 (Tocris Bioscience, Cat. No. 1036) respectively, were also included. The assay plate was incubated at room temperature for 60 min with agitation. Using a FilterMate Harvester® (Perkin Elmer), the contents of the assay plate were filtered through a UniFilter-96® PEI coated plate (Perkin Elmer Cat. No. 6005274 or 6005277). Filtering was achieved by aspirating the contents of the assay plate for 5 sec, then washing and aspirating the contents three times with ice-cooled wash buffer (50 mM Tris-HCl pH 7.4, 150 mM NaCl) and allowing the vacuum manifold to dry the plate for 30 sec. The filter plate was incubated for at least 1 h at 55° C. and allowed to dry. The bottom of the filter plate was sealed with backing tape. 40 μL Ultima Gold™ (Perkin Elmer, Cat. No. 6013329) was added to each well of the filter plate and the top of the plate was sealed with TopSeal-A PLUS® clear plate seal (Perkin Elmer, Cat. No. 6050185). The plate was incubated for at least 20 min, and then the amount of radioactivity remaining in each well was determined using a TopCount® (Perkin Elmer) scintillation counter. After normalization to total and non-specific binding, the percent effect at each compound concentration was calculated. The plot of percent effect versus the log of compound concentration was analyzed electronically using a 4-parameter logistic fit based on the Levenberg-Marquardt algorithm to generate IC50 values.

human A2A adenosine receptor, sequence (P29274 whole entry): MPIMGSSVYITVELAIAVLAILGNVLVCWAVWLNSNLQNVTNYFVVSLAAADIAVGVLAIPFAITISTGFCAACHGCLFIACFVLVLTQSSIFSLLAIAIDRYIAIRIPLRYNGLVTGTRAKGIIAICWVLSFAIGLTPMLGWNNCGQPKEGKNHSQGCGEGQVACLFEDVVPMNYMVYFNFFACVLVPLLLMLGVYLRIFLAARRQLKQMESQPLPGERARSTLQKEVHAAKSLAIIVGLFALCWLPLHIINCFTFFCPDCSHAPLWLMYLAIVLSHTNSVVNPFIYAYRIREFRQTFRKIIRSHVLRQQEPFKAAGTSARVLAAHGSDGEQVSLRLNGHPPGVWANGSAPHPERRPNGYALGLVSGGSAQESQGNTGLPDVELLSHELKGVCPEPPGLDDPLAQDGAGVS
human A2B adenosine receptor, sequence (P29275 whole entry): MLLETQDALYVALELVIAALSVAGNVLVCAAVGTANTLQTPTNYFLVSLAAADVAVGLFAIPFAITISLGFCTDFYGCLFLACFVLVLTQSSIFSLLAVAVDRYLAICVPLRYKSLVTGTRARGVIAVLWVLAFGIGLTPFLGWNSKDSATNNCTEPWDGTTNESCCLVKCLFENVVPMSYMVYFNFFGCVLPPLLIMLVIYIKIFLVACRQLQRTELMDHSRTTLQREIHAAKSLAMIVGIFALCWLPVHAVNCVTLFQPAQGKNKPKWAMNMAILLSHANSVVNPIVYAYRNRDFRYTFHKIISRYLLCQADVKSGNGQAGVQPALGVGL

Consider `COc1cccc2c1nc(N)n1nc(CCC3CCc4c(nnn4C(C)C)C3)nc21` (single isomer, unassigned) [Example 5.2B, (R or S)-2-(2-(1-isopropyl-4,5,6,7-tetrahydro-1H-benzo[d][1,2,3]triazol-5-yl)ethyl)-7-methoxy-[1,2,4]triazolo[1,5-c]quinazolin-5-amine], for which the IC50 in experiment [1] was found to be 12 nM; in experiment [2], 0.8 nM.
On to `COc1cccc2c1nc(N)n1nc(CCC3CCc4c(nnn4C4CC(F)(F)C4)C3)nc21` (single isomer, unassigned) [Example 5.3B, (R or S)-2-(2-(1-(3,3-difluorocyclobutyl)-4,5,6,7-tetrahydro-1H-benzo[d][1,2,3]triazol-5-yl)ethyl)-7-methoxy-[1,2,4]triazolo-[1,5-c]quinazolin-5-amine], for which the IC50 in experiment [1] worked out at 3.1 nM; in experiment [2] it was 0.9 nM.
Take `COc1cc(F)cc2c1nc(N)n1nc(CCC3CCc4nn(C(C)C)cc4C3)nc21` (single isomer, unassigned) [Example 5.4A, (S or R)-9-fluoro-2-(2-(2-isopropyl-4,5,6,7-tetrahydro-2H-indazol-5-yl)ethyl)-7-methoxy-[1,2,4]triazolo[1,5-c]quinazolin-5-amine]: the half-inhibitory concentration (IC50) was found to be 9.4 nM in experiment [1] and 1.9 nM in experiment [2].
Taken in the same sequence, the figures for `COc1cc(F)cc2c1nc(N)n1nc(CC3CC3c3ccc(C(C)(C)N)cc3)nc21` (single isomer, unassigned) [Example 8.4B, 2-(((1R,2S or 1S,2R)-2-(4-(2-aminopropan-2-yl)phenyl)-cyclopropyl)methyl)-9-fluoro-7-methoxy-[1,2,4]triazolo-[1,5-c]quinazolin-5-amine] were 139 nM and 3.1 nM.
`COc1cccc2c1nc(N)n1nc(CC3CC3c3ccc(C(C)(C)N)cc3)nc21` (single isomer, unassigned) [Example 8.5B, 2-(((IR,2S or 1S,2R)-2-(4-(2-aminopropan-2-yl)phenyl)cyclopropyl)methyl)-7-methoxy-[1,2,4]triazolo[1,5-c]quinazolin-5-amine]: the IC50 came out at 3.3 nM in experiment [1] and 1.3 nM in experiment [2].
Regarding `COc1cc2nc(N)n3nc(CC(C)S(C)(=O)=O)nc3c2cc1F` (single isomer, unassigned) [Example 13.2A, (S or R)-9-fluoro-8-methoxy-2-(2-(methylsulfonyl)propyl)-[1,2,4]triazolo[1,5-c]quinazolin-5-amine], the IC50 worked out at 61.4 nM in experiment [1] and 0.7 nM in experiment [2].
Regarding `COc1cc2nc(N)n3nc(CC(C)S(C)(=O)=O)nc3c2cc1F` (single isomer, unassigned) [Example 13.2B, (R or S)-9-fluoro-8-methoxy-2-(2-(methylsulfonyl)propyl)-[1,2,4]triazolo[1,5-c]quinazolin-5-amine], the results for the half-inhibitory concentration (IC50) in experiment [1] and in experiment [2] were 1050 nM and 8.1 nM, respectively.
Taken in the same sequence, the figures for `COc1cccc2c1nc(N)n1nc(COCc3ccc(C(O)(C(F)(F)F)C(F)(F)F)cc3)nc21` [Example 4.1, 2-(4-(((5-amino-7-methoxy-[1,2,4]triazolo[1,5-c]quinazolin-2-yl)methoxy)methyl)phenyl)-1,1,1,3,3,3-hexafluoropropan-2-ol] were 0.6 nM and 0.1 nM.
The matching figures for `COc1cc(F)cc2c1nc(N)n1nc(COCc3ccc(C(C)(C)O)cc3)nc21` [Example 4.14, 2-(4-(((5-amino-9-fluoro-7-methoxy-[1,2,4]triazolo[1,5-c]quinazolin-2-yl)methoxy)methyl)phenyl)propan-2-ol]: 9.1 nM and 0.2 nM.
Regarding `CC(C)(N)c1ccc([C@H]2C[C@@H]2Cc2nc3c4cc(F)cc(F)c4nc(N)n3n2)cc1` [Example 8.3B, 2-(((1R,2S)-2-(4-(2-aminopropan-2-yl)phenyl)cyclopropyl)methyl)-7,9-difluoro-[1,2,4]triazolo[1,5-c]quinazolin-5-amine], in experiment [2], the IC50 was determined as 25.4 nM.
The same measure, in the same setting: the figure for `COc1cccc2c1nc(N)n1nc(CCOc3ccc(C(O)(C(F)(F)F)C(F)(F)F)cc3)nc21` [Example 9.1, 2-(4-(2-(5-amino-7-methoxy-[1,2,4]triazolo[1,5-c]quinazolin-2-yl)ethoxy)phenyl)-1,1,1,3,3,3-hexafluoropropan-2-ol] is 1.7 nM.
Same read-out and setting: the figure for `COc1cccc2c1nc(N)n1nc(CCS(=O)(=O)C3CC3)nc21` [Example 13.3, 2-(2-(cyclopropylsulfonyl)ethyl)-7-methoxy-[1,2,4]triazolo[1,5-c]quinazolin-5-amine] is 1.6 nM; for `COc1ccc2c(c1)nc(N)n1nc(CCS(=O)(=O)C3CC3)nc21` [Example 13.6, 2-(2-(cyclopropylsulfonyl)ethyl)-8-methoxy-[1,2,4]triazolo[1,5-c]quinazolin-5-amine] it is 8.2 nM.
With `CS(=O)(=O)CCCc1nc2c3cc(F)cc(F)c3nc(N)n2n1` [Example 13.19, 7,9-difluoro-2-(3-(methylsulfonyl)propyl)-[1,2,4]triazolo[1,5-c]quinazolin-5-amine], the IC50 in experiment [2] turned out to be 21.8 nM.
On the same count and under the same terms, the figure for `Nc1nc2c(F)cc(F)cc2c2nc(CCCS(=O)(=O)C3CC3)nn12` [Example 13.20, 2-(3-(cyclopropylsulfonyl)propyl)-7,9-difluoro-[1,2,4]triazolo[1,5-c]quinazolin-5-amine] is 34.2 nM.
Same read-out and setting: the figure for `COc1ccc(C2=COCCC2)c2c1nc(N)n1nc(CO)nc21` [Example 15.4, (5-amino-10-(3,4-dihydro-2H-pyran-5-yl)-7-methoxy-[1,2,4]triazolo[1,5-c]quinazolin-2-yl)methanol] is 2.7 nM.
In experiment [2], `CCOC(=O)CCCn1cc(Cc2nc3c4cc(F)cc(OC)c4nc(N)n3n2)cn1` [Example 16.3, ethyl 4-(4-((5-amino-9-fluoro-7-methoxy-[1,2,4]triazolo[1,5-c]quinazolin-2-yl)methyl)-1H-pyrazol-1-yl)butanoate] returned an IC50 of 14.9 nM. Against the preceding compound, the IC50 is about 5.5-fold higher.
For `COc1cc(F)cc2c1nc(N)n1nc(Cc3cnn(CCCC(C)(C)O)c3)nc21` [Example 16.4, 5-(4-((5-amino-9-fluoro-7-methoxy-[1,2,4]triazolo[1,5-c]quinazolin-2-yl)methyl)-1H-pyrazol-1-yl)-2-methylpentan-2-ol], in experiment [2], the IC50 is 15.3 nM.
In experiment [2], `COc1cc(F)cc2c1nc(N)n1nc(Cc3cnn(CCC(C)(C)O)c3)nc21` [Example 16.5, 4-(4-((5-amino-9-fluoro-7-methoxy-[1,2,4]triazolo[1,5-c]-quinazolin-2-yl)methyl)-1H-pyrazol-1-yl)-2-methylbutan-2-ol] had an IC50 of 43.4 nM.
